Source: ChEMBL document CHEMBL1136524, “Substituted 2-pyridinemethanol derivatives as potent and selective phosphodiesterase-4 inhibitors” (Bioorg Med Chem Lett, 2003)

How the values were obtained:
[1] = target: T1, 3',5'-cyclic-AMP phosphodiesterase 4A (Homo sapiens, UniProt P27815); assay: In vitro inhibitory activity against Phosphodiesterase 4A (PDE4)
Homo sapiens = species: Homo sapiens; assay: Ability to inhibit LPS-induced TNF-alpha formation in human whole blood (HWB); assay type: functional, organism-based
[2] = target: T1, 3',5'-cyclic-AMP phosphodiesterase 4A; assay: Inhibition of Phosphodiesterase-4A (PDE4)
[3] = Oral bioavailability in rat; assay type: ADME, organism-based; conditions: in vivo
Ovis aries [4] = assay: Inhibition of ascaris-induced bronchoconstriction in conscious sheep at 0.5 mg/kg iv dose at early phase; assay type: functional
Ovis aries [5] = assay: Inhibition of ascaris-induced bronchoconstriction in conscious sheep at 0.5 mg/kg iv dose late phase; assay type: functional
[6] = Maximal plasma concentration in squirrel monkeys; assay type: ADME, organism-based
[7] = Half life period was determined in squirrel monkey after iv administration at a dose of 5 mg/kg; assay type: ADME, organism-based; parameters: dose 5 mg/kg, route intravenous; conditions: in vivo
[8] = Half life period was determined in rat after iv administration at a dose of 5 mg/kg; assay type: ADME, organism-based; parameters: dose 5 mg/kg, route intravenous; conditions: in vivo
Cavia porcellus = assay: Inhibition of ovalbumin induced bronchoconstriction in conscious guinea pig after ip administration at 0.3 mg/kg (0.5 hr pre-treatment); assay type: functional; conditions: route intraperitoneal
[9] = Oral bioavailability in squirrel monkey at a dose of 10 mg/kg; assay type: ADME, organism-based, Saimiri sciureus; conditions: in vivo

T1 sequence (P27815 whole entry): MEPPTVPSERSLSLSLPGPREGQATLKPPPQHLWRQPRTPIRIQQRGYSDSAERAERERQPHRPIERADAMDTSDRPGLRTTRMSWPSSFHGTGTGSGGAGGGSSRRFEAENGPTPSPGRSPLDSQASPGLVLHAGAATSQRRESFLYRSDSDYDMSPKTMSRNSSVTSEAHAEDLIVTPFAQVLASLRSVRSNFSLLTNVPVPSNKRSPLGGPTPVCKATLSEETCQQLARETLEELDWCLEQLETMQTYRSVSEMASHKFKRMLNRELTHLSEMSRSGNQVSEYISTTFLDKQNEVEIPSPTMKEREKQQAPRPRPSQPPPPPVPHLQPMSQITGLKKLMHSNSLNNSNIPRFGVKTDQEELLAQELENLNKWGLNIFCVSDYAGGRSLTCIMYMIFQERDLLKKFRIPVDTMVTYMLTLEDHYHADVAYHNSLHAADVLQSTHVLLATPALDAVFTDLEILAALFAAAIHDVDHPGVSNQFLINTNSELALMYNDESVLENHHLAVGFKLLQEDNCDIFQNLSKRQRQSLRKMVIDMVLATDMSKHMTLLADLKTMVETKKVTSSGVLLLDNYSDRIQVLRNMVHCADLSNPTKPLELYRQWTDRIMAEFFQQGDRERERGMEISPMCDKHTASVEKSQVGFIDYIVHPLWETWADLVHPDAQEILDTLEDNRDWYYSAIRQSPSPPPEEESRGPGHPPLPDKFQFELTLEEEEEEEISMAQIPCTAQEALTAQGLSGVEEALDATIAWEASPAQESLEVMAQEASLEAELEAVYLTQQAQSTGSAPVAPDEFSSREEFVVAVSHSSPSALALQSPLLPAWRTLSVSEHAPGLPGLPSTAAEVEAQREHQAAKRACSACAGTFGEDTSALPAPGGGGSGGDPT

| Structure (SMILES) | IC50 [1] | IC50 (Homo sapiens; Homo sapiens, Blood) | also measured |
| --- | --- | --- | --- |
| CC(O)(c1ccccc1)c1ccc(C(Cc2cc[n+]([O-])cc2)c2ccc(OC(F)F)c(OC(F)F)c2)cn1 (racemic) | 0.6 nM |  | IC50 (Homo sapiens): 350 nM |
| CC(O)(c1ccc(C(Cc2cc[n+]([O-])cc2)c2ccc(OC(F)F)c(OC(F)F)c2)cn1)c1nccs1 (configuration not stated) | 6 nM | 490 nM |  |
| [O-][n+]1ccc(CC(c2ccc(C(O)(c3ccccc3)C(F)(F)F)nc2)c2ccc(OC(F)F)c(OC(F)F)c2)cc1 (configuration not stated) | 2.4 nM | 460 nM |  |
| O=C(c1ccccc1)c1ccc(C(Cc2cc[n+]([O-])cc2)c2ccc(OC(F)F)c(OC(F)F)c2)cn1 (configuration not stated) |  | 600 nM | IC50 [2]: 23 nM |
| CCCCC(C)(O)c1ccc(C(Cc2cc[n+]([O-])cc2)c2ccc(OC(F)F)c(OC(F)F)c2)cn1 (configuration not stated) | 6 nM | 340 nM |  |
| CC(=O)c1ccc(C(Cc2cc[n+]([O-])cc2)c2ccc(OC(F)F)c(OC(F)F)c2)cn1 (configuration not stated) | 102 nM | 2200 nM |  |
| CC(O)(c1ccccc1)c1ccc(C(Cc2cc[n+]([O-])cc2)c2ccc(OC(F)F)c(OC(F)F)c2)cn1 (single isomer, unassigned; diastereomer 1) | 2 nM |  | bioavailability [3]: 57%; inhibition in vivo at 0.5 mg/kg (Ovis aries [4]): 33%; inhibition in vivo at 0.5 mg/kg (Ovis aries [5]): 91%; Cmax [6]: 2200 nM; half-life [7]: 2.2 h; half-life [8]: 1.5 h; IC50 (Homo sapiens): 160 nM; Inhibition (Cavia porcellus): 62%; bioavailability [9]: 73% |
| [O-][n+]1ccc(CC(c2ccc(C(O)(c3ccccc3)c3ccccc3)nc2)c2ccc(OC(F)F)c(OC(F)F)c2)cc1 (configuration not stated) | 0.8 nM | 550 nM |  |
| CC(C)C(O)(c1ccccc1)c1ccc(C(Cc2cc[n+]([O-])cc2)c2ccc(OC(F)F)c(OC(F)F)c2)cn1 (configuration not stated) | 0.8 nM | 370 nM |  |
| CC(O)(c1ccccc1)c1ccc(C(Cc2cc[n+]([O-])cc2)c2ccc(OC(F)F)c(OC(F)F)c2)cn1 (single isomer, unassigned; diastereomer 2) | 1 nM |  | IC50 (Homo sapiens): 110 nM; Inhibition (Cavia porcellus): 34% |
| CCC(O)(c1ccccc1)c1ccc(C(Cc2cc[n+]([O-])cc2)c2ccc(OC(F)F)c(OC(F)F)c2)cn1 (configuration not stated) |  | 160 nM | IC50 [2]: 1 nM |
| [O-][n+]1ccc(CC(c2ccc(C(O)c3ccccc3)nc2)c2ccc(OC(F)F)c(OC(F)F)c2)cc1 (configuration not stated) |  | 360 nM | IC50 [2]: 6 nM |
| COc1ccc([C@H](Cc2ccncc2)c2ccccc2)cc1OC1CCCC1 [CDP840] |  | 16000 nM |  |
| [O-][n+]1ccc(CC(c2ccc(Cc3ccccc3)nc2)c2ccc(OC(F)F)c(OC(F)F)c2)cc1 (configuration not stated) | 3 nM | 770 nM |  |
| CC(C)(O)c1ccc(C(Cc2cc[n+]([O-])cc2)c2ccc(OC(F)F)c(OC(F)F)c2)cn1 (configuration not stated) | 40 nM | 890 nM |  |
| CC(O)(c1ccc(C(Cc2cc[n+]([O-])cc2)c2ccc(OC(F)F)c(OC(F)F)c2)cn1)C1CCCCC1 (configuration not stated) | 1.2 nM | 300 nM |  |
| CC(O)(c1ccccc1)c1ccc(C(Cc2cc[n+]([O-])cc2)c2ccc(OC(F)F)c(OC(F)F)c2)cn1 (mixture of isomers) | 48 nM |  | IC50 (Homo sapiens): 3500 nM |
